Counter-ions that a name gives are not always drawn. Like-named read-outs stand apart in the source and are kept apart here.
Experiments:
Panc-1 = test: Cell viability assay (resazurin, 96 hr) in Panc-1; type: cell-based; conditions: Homo sapiens; Panc-1 pancreatic cell line, 96 hr exposure; read-out: Panc-1_Cell Viability_IC50
Method: (§1) Cell Viability Assay in MIA PaCa-2 and Panc-1
(§2) MIA PaCa-2 (ATCC® CRL-1420™) and Panc-1 (CRL-1469™), both pancreatic cell lines were seeded in their respective medium (DMEM, Cat #10569044 with 10% FBS, Cat #16000044; Gibco for Panc-1 and an additional 2.5% Horse Serum, Cat #16050122; Gibco for MIA PaCa-2) at a cell count of 3000 cells per 100 μl per well in a 96 well edge plate (167425; ThermoFisher). Cells were allowed to grow at 37° C. for 24 hr in 5% CO2 (culture conditions) in a Nuaire incubator (humidified). Serially diluted compounds (100 μl) were added to the culture plate 24 hr later and the cultures (MIA PaCa-2 and Panc-1) were further incubated in culture conditions for 96 hr. Experiment was terminated at the completion of 96 hr exposure to the drug by replacing the medium with 100 μl of 1 mM of resazurin (R7017; Sigma) prepared in culture medium and the plates were further incubated in culture conditions for 4 hr. Fluorescence was then measured using a multimodal plate reader (Biotek Synergy Neo) at an excitation wavelength of 535 nm and emission wavelength of 590 nm to obtain relative fluorescence units. Data analysis was done by subtracting the background fluorescence (only medium blank) value from each reading and then normalizing with the vehicle control (DMSO treated cells) to obtain percent survival/proliferation. Percent survival at different doses was used to calculate IC50 by fitting the curve to the “four-parameter variable slope logistic model” using Prism Graph Pad.

TGFBR1 (ALK5) = target: T1, TGFBR1 (ALK5) (Homo sapiens, UniProt P36897); test: ALK5 kinase assay (LanthaScreen Terbium labeled TR-FRET); type: biochemical; conditions: for inhibition at 0.1 µM: 100 nM concentration of compound, read-out: Enzyme Activity TGFBR1 (ALK5) % Inhibition at 100 nM
T1 sequence (P36897 34-503): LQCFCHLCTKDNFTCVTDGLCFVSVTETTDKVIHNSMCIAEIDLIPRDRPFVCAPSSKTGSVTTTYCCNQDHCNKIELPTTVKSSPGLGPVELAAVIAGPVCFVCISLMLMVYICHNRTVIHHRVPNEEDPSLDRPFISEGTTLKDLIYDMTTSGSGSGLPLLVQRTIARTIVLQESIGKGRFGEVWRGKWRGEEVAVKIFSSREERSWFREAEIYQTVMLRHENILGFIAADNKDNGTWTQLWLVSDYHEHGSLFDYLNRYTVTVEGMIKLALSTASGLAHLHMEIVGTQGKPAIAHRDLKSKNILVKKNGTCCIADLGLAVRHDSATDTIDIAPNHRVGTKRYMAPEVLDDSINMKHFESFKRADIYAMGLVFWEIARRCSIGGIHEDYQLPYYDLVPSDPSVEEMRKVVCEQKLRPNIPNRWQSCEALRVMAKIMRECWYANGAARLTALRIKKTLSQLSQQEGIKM
Method: ALK5 Kinase Assay for IC50 Determination:
IC50 values of compounds against TGFβ kinase was determined by LanthaScreen™ Terbium Labeled TR-FRET assay. Kinase assays were performed in IX kinase buffer (# PV6135, Invitrogen, Life Technologies Grand Island, N.Y.) where total reaction volume was 10 μL in low-volume 384-well plates (#4511,Corning). Serially diluted compounds (3-fold) were incubated with TGFβ kinase (6 nM) for 10 min, following which a mixture of ATP (10 μM) (# A1852, Sigma, St-Louis, Mo.) and fluorescent-PolyGT substrate (200 nM) (# PV3610, Invitrogen, Life Technologies Grand Island, N.Y.) was added and incubated in dark at room temperature for 1 h. After 1 h, 10 μL stop solution containing Terbium labeled antibody (4 nM) (# PV3529, Invitrogen, Life Technologies Grand Island, N.Y.) and EDTA (# E5134, Sigma, St-Louis, Mo.) (20 mM) in TR-FRET dilution buffer (# PV3574, Invitrogen, Life Technologies Grand Island, N.Y.) was added. Readings were taken in a Synergy Neo Plate reader (BioTek, Winooski) at single excitation of 340 nm and Dual emission at 495 nm and 520 nm respectively.
The % activity of test samples was calculated as (Sample−Min)×100/(Max−Min). [Max: DMSO control, complete reaction with enzyme with DMSO and Min: No enzyme with DMSO]. Percent inhibition (100-% activity) was fitted to the “four-parameter logistic model” in XLfit for determination of IC50 values.

MAPK14/p38α kinase = target: T2, MAPK14/p38α kinase (Homo sapiens, UniProt Q16539); test: MAPK14/p38α kinase assay (LanthaScreen TR-FRET); type: biochemical; conditions: for inhibition at 0.1 µM: 100 nM concentration of compound; for IC50: Table 3, read-out: IC50 (P38 alpha)
T2 construct: purchased ThermoFisher PV3304
Method: MAPK14/p38α Kinase Assay for IC50 Determination:
IC50 values of compounds against MAPK14/P38α kinase were determined by Lanthascreen based TR-FRET assay. Kinase reactions were performed in a 10 μL volume in low-volume 384-well plates. The concentration of substrate was maintained at 400 nM in the assay, and the kinase reaction buffer (1×; Cat # PV3189, ThermoFisher) consisted of 50 mM HEPES pH 7.5, 0.01% BRIJ-35, 10 mM MgCl2, and 1 mM EGTA. Serially diluted compounds (3-fold) in DMSO (0.5% in final reaction) were incubated with cocktail of MAPK14/p38α kinase (20 ng/ml; Cat # PV3304, ThermoFisher), Substrate GFP-ATF2 (19-96), (0.4 μM; Cat # PV4445, ThermoFisher), ATP (90 μM; Cat # PV3227, ThermoFisher) and buffer. Kinase reactions were allowed to proceed for 1 hour at room temperature before EDTA (10 mM; Cat # P2825, ThermoFisher) and LanthaScreen™ Tb-antipATF2 (pThr71) Antibody (2 nM; Cat # PV4451, ThermoFisher) in TR-FRET dilution buffer (IX; Cat # PV3574, ThermoFisher) were added. The plate was allowed to incubate at room temperature for 30 minutes before being read on a BMG Pherastar plate reader using the LanthaScreen™ filter block for LanthaScreen™ TR-FRET.
The resulting TR-FRET emission ratio was plotted against the concentration of inhibitor, and the data was fit to a sigmoidal dose-response curve with a variable slope. The IC50 for the inhibitor was calculated from the curve.

MIA PaCa-2 = test: Cell viability assay (resazurin, 96 hr) in MIA PaCa-2; type: cell-based; conditions: Homo sapiens; MIA PaCa-2 pancreatic cell line, 96 hr exposure; read-out: MiaPaCa-2_Cell Viability_IC50
Method: as §1, §2

[1] = read-out: Enzyme Activity MAPK14 (p38 alpha) % Inhibition at 100 nM
[2] = Table 4, read-out: Enzyme Activity MAPK14 (p38alpha) % Inh at 100 nM

T2 sequence (Q16539 whole entry): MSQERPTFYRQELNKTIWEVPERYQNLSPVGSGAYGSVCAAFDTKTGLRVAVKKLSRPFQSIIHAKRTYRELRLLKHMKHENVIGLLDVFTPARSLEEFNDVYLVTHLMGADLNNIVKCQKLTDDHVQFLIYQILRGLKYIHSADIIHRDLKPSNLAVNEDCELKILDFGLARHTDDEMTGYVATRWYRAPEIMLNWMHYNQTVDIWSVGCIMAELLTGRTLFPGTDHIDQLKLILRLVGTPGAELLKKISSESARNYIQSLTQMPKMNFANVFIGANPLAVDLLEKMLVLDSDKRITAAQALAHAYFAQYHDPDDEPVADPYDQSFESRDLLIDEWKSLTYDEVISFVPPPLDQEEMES

| SMILES | IC50 (Panc-1) [µM] | inhibition at 0.1 µM (TGFBR1 (ALK5)) [%] | inhibition at 0.1 µM (MAPK14/p38α kinase; [1]) [%] | IC50 (MIA PaCa-2) [µM] | IC50 (TGFBR1 (ALK5); Table 4, read-out: ALK5 IC50) [µM] | inhibition at 0.1 µM (MAPK14/p38α kinase; [2]) [%] | IC50 (TGFBR1 (ALK5); Table 3, read-out: IC50 (ALK5)) [µM] | IC50 (MAPK14/p38α kinase) [µM] |
| --- | --- | --- | --- | --- | --- | --- | --- | --- |
| CC(C)c1cnc(-c2ccc(F)cc2)nc1Nc1ccnc2[nH]cc(-n3cncn3)c12 [Compound No. 6, N-(2-(4-fluorophenyl)-5-isopropylpyrimidin-4-yl)-3-(1H-1,2,4-triazol-1-yl)-1H-pyrrolo [2,3-b] pyridin-4-amine hydrochloride] | 0.645 | 97 | 0 | 0.655 |  |  |  |  |
| CC(C)c1cnc(-c2ccc(F)cc2)nc1Nc1ccnc2[nH]cc(N3CCCCC3)c12 [Compound No. 3, N-(2-(4-fluorophenyl)-5-isopropylpyrimidin-4-yl)-3-(piperidin-1-yl)-1H-pyrrolo [2,3-b] pyridin-4-amine hydrochloride] | > 27 | 72 | 42 | > 30 |  |  |  |  |
| CC(C)c1cnc(-c2ccc(F)cc2)nc1Nc1ccnc2[nH]cc(N3CCOCC3)c12 [Compound No. 5, N-(2-(4-fluorophenyl)-5-isopropylpyrimidin-4-yl)-3-morpholino-1H-pyrrolo [2,3-b] pyridin-4-amine hydrochloride] | > 30 | 88 | 7 | > 30 |  |  |  |  |
| CC(C)c1cnc(-c2ccc(F)cc2)nc1Nc1ccnc2[nH]cc(N3CCN(C)CC3)c12 [Compound No. 2, N-(2-(4-fluorophenyl)-5-isopropylpyrimidin-4-yl)-3-(4-methylpiperazin-1-yl)-1H-pyrrolo [2,3-b] pyridin-4-amine hydrochloride] | 2.21 | 84 | 19 | 7.7 |  |  |  |  |
| CC(C)c1cnc(-c2ccc(F)cc2)nc1Nc1ccnc2[nH]cc(N3CCN[C@H](C)C3)c12 [Compound No. 9, (R)—N-(2-(4-fluorophenyl)-5-isopropylpyrimidin-4-yl)-3-(3-methylpiperazin-1-yl)-1H-pyrrolo[2,3-b]pyridin-4-amine hydrochloride] | 3.28 |  |  | 3.53 | 0.103 | 52 |  |  |
| CC(C)c1cnc(-c2ccc(F)cc2)nc1Nc1ccnc2[nH]cc(C(=O)C(N)=O)c12 [Compound No. 17, 2-(4-((2-(4-fluorophenyl)-5-isopropylpyrimidin-4-yl)amino)-1H-pyrrolo[2,3-b]pyridin-3-yl)-2-oxoacetamide hydrochloride] | > 30 |  |  | 0.765 |  |  | > 5 | 0.309 |
| CNC(=O)C(=O)c1c[nH]c2nccc(Nc3nc(-c4cc(Cl)ccc4F)ncc3C(C)C)c12 [Compound No. 18, 2-(4-((2-(5-chloro-2-fluorophenyl)-5-isopropylpyrimidin-4-yl)amino)-1H-pyrrolo[2,3-b]pyridin-3-yl)-N-methyl-2-oxoacetamide hydrochloride] | > 30 |  |  | > 30 |  |  | > 5 | 0.349 |
| CC(C)c1cnc(-c2ccc(F)cc2)nc1Nc1ccnc2[nH]cc(N3CCNCC3)c12 [Compound No. 1, N-(2-(4-fluorophenyl)-5-isopropylpyrimidin-4-yl)-3-(piperazin-1-yl)-1H-pyrrolo [2,3-b] pyridin-4-amine hydrochloride] | 2.31 | 99 | 61 | 1.63 |  |  |  |  |
| CC(C)c1cnc(-c2ccc(F)cc2)cc1Nc1ccnc2[nH]cc(C(=O)C(N)=O)c12 [Compound No. 19, 2-(4-((2-(4-fluorophenyl)-5-isopropylpyridin-4-yl)amino)-1H-pyrrolo[2,3-b]pyridin-3-yl)-2-oxoacetamide hydrochloride] | 23.2 |  |  | 15.5 |  |  | 0.278 | 1.76 |
| CC(C)c1cnc(-c2ccccc2)nc1Nc1ccnc2[nH]cc(C(=O)C(N)=O)c12 [Compound No. 26, 2-(4-((5-isopropyl-2-phenylpyrimidin-4-yl)amino)-1H-pyrrolo[2,3-b]pyridin-3-yl)-2-oxoacetamide hydrochloride] | > 30 |  |  | 2.19 |  |  | 0.602 | 0.244 |
| CC(C)c1cnc(-c2ccc(F)cc2)nc1Nc1ccnc2[nH]cc(N3CCC(C(N)=O)CC3)c12 [Compound No. 12, 1-(4-((2-(4-fluorophenyl)-5-isopropylpyrimidin-4-yl)amino)-1H-pyrrolo[2,3-b]pyridin-3-yl)piperidine-4-carboxamide formic acid] | 2.6 |  |  | 1.78 | 1.17 | 37 |  |  |
| CC(C)c1cnc(-c2ccc(F)cc2)nc1Nc1ccnc2[nH]cc(N3CCNCC3C)c12 (centres unmarked) [Compound No. 4, N-(2-(4-fluorophenyl)-5-isopropylpyrimidin-4-yl)-3-(2-methylpiperazin-1-yl)-1H-pyrrolo[2,3-b]pyridin-4-amine hydrochloride] | 1.88 | 94 | 72 | 1.54 |  |  |  |  |
| CC(C)c1cnc(-c2ccc(F)cc2)nc1Nc1ccnc2[nH]cc(N3CCN[C@@H](C)C3)c12 [Compound No. 11, (S)—N-(2-(4-fluorophenyl)-5-isopropylpyrimidin-4-yl)-3-(3-methylpiperazin-1-yl)-1H-pyrrolo[2,3-b]pyridin-4-amine hydrochloride] | 2.81 |  |  | 2.04 | 0.147 | 18 |  |  |
| CC(C)c1cnc(-c2ccc(F)cc2)nc1Nc1cccc2[nH]cc(C(=O)C(N)=O)c12 [Compound No. 28, 2-(4-(2-(4-fluorophenyl)-5-isopropylpyrimidin-4-ylamino)-1H-indol-3-yl)-2-oxoacetamide hydrochloride] | > 30 |  |  | > 30 | > 5 | 21 |  |  |

From patent US20200171030A1, “DUAL INHIBITORS OF ALK5 AND P38A MAP KINASE” (INTEGRAL BIOSCIENCES PRIVATE LIMITED, priority 2018, published 2020)
